From patent US4430435A (priority 1980, dated 1984)
Several values for one entry are separate records, joined by “and”; a condition that tells them apart may be missing. Equal values may be shown once.

Assays:
β-Adrenergic Receptors = format: binding, rat
calf caudate [1] = molecular target: T1, calf caudate (Bos taurus, UniProt P20288); assay: Recovery of haloperidol added to drug-free serum, measured by the 3H-spiperone/calf caudate radioreceptor assay; format: binding; settings: in the presence of TBEP
T1 construct: homogenised calf caudate (8 mg/ml); from tissue; host or cells: calf caudate, homogenised

calf caudate [2] = molecular target: T1, calf caudate; format: binding
[3] = Radioreceptor assay for tricyclic antidepressant drugs: binding of 3H-desipramine to talc in the presence of serum or buffer, with blocking agent

T1 sequence (P20288 whole entry): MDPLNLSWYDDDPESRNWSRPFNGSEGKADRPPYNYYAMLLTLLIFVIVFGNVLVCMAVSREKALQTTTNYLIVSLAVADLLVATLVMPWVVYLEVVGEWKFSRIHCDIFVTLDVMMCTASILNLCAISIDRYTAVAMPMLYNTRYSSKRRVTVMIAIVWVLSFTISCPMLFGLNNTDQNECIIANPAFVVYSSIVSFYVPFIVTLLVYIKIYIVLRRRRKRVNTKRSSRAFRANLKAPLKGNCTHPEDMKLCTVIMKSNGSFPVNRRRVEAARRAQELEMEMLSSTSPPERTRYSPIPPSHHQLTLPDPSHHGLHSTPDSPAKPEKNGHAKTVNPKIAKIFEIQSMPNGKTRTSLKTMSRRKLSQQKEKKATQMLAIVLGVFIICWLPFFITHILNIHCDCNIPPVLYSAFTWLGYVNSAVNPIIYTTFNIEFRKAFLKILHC

CCCCOCCOP(=O)(OCCOCCCC)OCCOCCCC [TBEP, tris(butoxyethyl) phosphate]
125I-HYP Bound (CPM) in Buffer (β-Adrenergic Receptors): 8513 CPM and 8226 CPM and 8729 CPM and 8510 CPM and 8630 CPM and 8412 CPM | variability (CV) in the recovery of added haloperidol (calf caudate [1]): reduced | % 3H-Spiperone Bound in Buffer (calf caudate [2]): 35.0% and 35.3% and 35.6% and 32.5% and 32.4% and 31.6% and 27.7% | % 3H-Spiperone Bound in Serum (calf caudate [2]): 23.0% and 26.2% and 27.8% and 29.1% and 27.2% and 26.1% and 24.3% | % of 3H-Spiperone Bound, TBEP present (calf caudate [2]): 31.9% and 32.2% and 31.5% and 33.8% and 33.5% and 32.8% and 31.8% | % of 3H-Spiperone Bound, TBEP present, mean (X) (calf caudate [2]): 32.4% | between sample variability (CV) in 3H-spiperone binding (calf caudate [2]): reduced

CCOP(=O)(OCC)OCC [TEP, triethyl phosphate]
125I-HYP Bound (CPM) in Buffer (β-Adrenergic Receptors): 8367 CPM and 7988 CPM and 7972 CPM and 7931 CPM and 7613 CPM | 125I-HYP Bound (CPM) in Serum (β-Adrenergic Receptors): 3812 CPM and 4131 CPM and 6011 CPM and 5903 CPM and 5881 CPM | % Change in Buffer (β-Adrenergic Receptors): -1% and -5% and -6% and -10% | 3H-Desipramine Bound (CPM) in Buffer ([3]; 50 μg/ml TEP): 12093 CPM | 3H-Desipramine Bound (CPM) in Serum ([3]; 50 μg/ml TEP): 7740 CPM | % Change in Buffer ([3]; 50 μg/ml TEP): -2% | % Change in Serum ([3]; 50 μg/ml TEP): +10% | 3H-Desipramine Bound (CPM) in Buffer ([3]; 100 μg/ml TEP): 11748 CPM | 3H-Desipramine Bound (CPM) in Serum ([3]; 100 μg/ml TEP): 8276 CPM | % Change in Buffer ([3]; 100 μg/ml TEP): -5% | % Change in Serum ([3]; 100 μg/ml TEP): +18% | 3H-Desipramine Bound (CPM) in Buffer ([3]; 500 μg/ml TEP): 13024 CPM | 3H-Desipramine Bound (CPM) in Serum ([3]; 500 μg/ml TEP): 9204 CPM | % Change in Buffer ([3]; 500 μg/ml TEP): +6% | % Change in Serum ([3]; 500 μg/ml TEP): +31% | 3H-Desipramine Bound (CPM) in Buffer ([3]; 750 μg/ml TEP): 11507 CPM | 3H-Desipramine Bound (CPM) in Serum ([3]; 750 μg/ml TEP): 9198 CPM | % Change in Buffer ([3]; 750 μg/ml TEP): -6% | % Change in Serum ([3]; 750 μg/ml TEP): +30% | 3H-Desipramine Bound (CPM) in Buffer ([3]; 1000 μg/ml TEP): 11925 CPM | 3H-Desipramine Bound (CPM) in Serum ([3]; 1000 μg/ml TEP): 9745 CPM | % Change in Buffer ([3]; 1000 μg/ml TEP): -3% | % Change in Serum ([3]; 1000 μg/ml TEP): +39% | 3H-Desipramine Bound (CPM) in Buffer ([3]; 1250 μg/ml TEP): 12362 CPM | 3H-Desipramine Bound (CPM) in Serum ([3]; 1250 μg/ml TEP): 10016 CPM | % Change in Buffer ([3]; 1250 μg/ml TEP): 0% | % Change in Serum ([3]; 1250 μg/ml TEP): +43% | % 3H-Spiperone Bound in Buffer (calf caudate [2]): 37.9% and 37.5% and 37.1% and 36.6% and 36.8% and 35.0% | % 3H-Spiperone Bound in Serum (calf caudate [2]): 27.8% and 28.6% and 29.1% and 30.1% and 30.6% and 29.8% | % Change in Buffer (calf caudate [2]): 0% and -1% and -2% and -3% and -7%
